# Results from patent publication EP3479863B1, “COMPOSITIONS, METHODS AND ARTICLES CONCERNING PHARMACEUTICAL NITRIC OXIDE AND CONTROLLED PATIENT DELIVERY SYSTEMS THEREOF” (Mallinckrodt Pharmaceuticals Ireland Limited, priority 2010, dated 2012).
# Columns and labels:
# [1] = two lines for one acid = two pKa values; cited from earlier work
# [2] = NO release from powdered acids hit by single 50 nL sodium nitrite droplets, measured with NO analyzer; conditions: Example 2; for Time to 90% AUC: 7 mg finely ground powder per well, 50 nL droplet of 6M NaNO2, air flow 500 mL/minute; for NO release kinetics: comparison in words, FIG. 12 and FIG. 13
# Procedure: Powdered acids of different acidity (TABLE 1) and reducing capacity, or mixtures at equal weight ratios thereof, were tested for their ability to promote NO release from concentrated aqueous solutions of sodium nitrite. Acids were finely ground and about 5-7 mg placed into wells of a reaction plate contained within a reaction chamber equipped with a microvalve capable of dispensing single 50 nL liquid droplets of sodium nitrite into each well. The reaction chamber was continuously flushed with air at defined flow rates and the NO concentration in the air measured with a […]® NO Analyzer 280i. When NO concentrations exceeded the measurement range of the NO analyzer, the air stream was diluted with a nitrogen stream of defined flow rate prior to measurement and the measured NO concentration corrected for the dilution factor. 50 ml of 6M NaNO2 stock solution was prepared and degassed for 15 minutes. 10 mL of the stock solution was filled into a liquid reservoir feeding a microvalve capable of dispensing single 50 nL liquid droplets sequentially into each of six wells of a reaction plate contained within a reaction chamber. The air flow rate through the reaction chamber was set to 500 mL/minute. The air flow was diluted with nitrogen gas to a flow rate of 1586 mL/minute to allow measurement of the entire NO peak with a […]® NO Analyzer 280i. The NO analyzer was calibrated using a 45 ppm NO calibration gas prior to the experiment. […] The microvalve fired a 50 nL droplet into each well. The timecourse of NO production was measured with the NO Analyzer. The following time parameters were analyzed for each NO peak: AUC, time to reaching 90% of the AUC, and maximum peak NO concentration.
# [3] = NO release from croconic acid coated MAGNA nylon tape versus particulate croconic acid, single 50 nL droplets; conditions: single 50 nL droplets of 6M NaNO2
# Procedure: 10 grams of croconic acid were milled for 5 minutes using a bench top micromill and sifted through a 32 µm sieve. 100 mg of milled acid were suspended into 1 mL of absolute MeOH supplemented with 2% v/v cornstarch and 0.05% v/v glycerol. The yellow-orange suspension was spread evenly as a single coat using an acid resistant brush onto a 5 mm by 18 inch MAGNA® hydrophobic nylon tape of 1 .2 µm pore size. The tape was air-dried for 30 min by suspending it horizontally at both ends. The croconic acid formed a dark yellow slightly powdery coating on top of the nylon membrane; the average surface density of croconic acid deposited on the tape was 2.66 mg/cm^2.
# NO release in response to single 50 nL droplets of 6M NaNO2 is shown in FIG 14 and TABLE 3, compared to the NO release from croconic acid powder. The croconic acid coated tape produced 85.3% of the NO compared to the bulk croconic acid powder, based upon the AUC.
# Particulate croconic acid of particle size < 20µm produced by dry-milling for 45 min was formulated as 500 mg/ml suspension in USP ethanol by 10 min of sonication with additives of 0.05% v/v glycerol and 2% v/v starch and coated onto MAGNA® hydrophobic nylon tape in two sequential air-dried coats, yielding an average croconic acid surface density of 4.42 mg/cm^2.
# NO release in response to single 50 nL droplets of 6M NaNO2 is shown in FIG. 15 and TABLE 4, compared to the NO release from particulate croconic acid. The croconic acid coated tape yielded 93.9% of the NO compared to the bulk croconic acid powder.
# In another example, the procedure of the preceding paragraph was repeated by suspending 350 mg of milled croconic acid in 1 mL of isopropanol and preparing two sequential air-dried coats on the MAGNA® hydrophobic nylon strip yielding a croconic acid deposited as a dark yellow coating on the nylon membrane. NO release in response to single 50 nL droplets of 6M NaNO2 is shown in FIG. 16 and TABLE 5, compared to the NO release from particulate croconic acid. The croconic acid coated tape yielded 84.7% of the NO compared to the bulk croconic acid powder.
# [4] = cited from earlier work
compound,measurement,setting,value
"O=C(O)C(O)c1c(F)c(F)cc(F)c1F (centres unmarked) [2,3,5,6-Tetrafluoromandelic acid]",pKa,[1],<<3.4
O=C(O)C(O)c1ccccc1F (centres unmarked) [2-Fluoro-mandelic acid],pKa,[1],<3.4
"O=C1O[C@H]([C@@H](O)CO)C(O)=C1O [Ascorbic Acid, reference compound]",Time to 90% AUC,[2],13.98 s
same,NO release kinetics,[2],"slow, protracted and irregular"
same,pKa,[1],11.6
O=C(O)C(O)c1ccccc1 (centres unmarked) [Mandelic acid],pKa,[1],3.37
O=C(O)C(Cl)(Cl)Cl [trichlomacetic acid],pKa,[1],0.77
Croconic Acid,Time to 90% AUC,[2],1.1 s
same,NO release kinetics,[2],superior NO release kinetics over ascorbic acid while releasing similar quantities of NO
same,Time to 90% AUC,"[3]; Example 4A, suspension in MeOH, single coat, 1.2 µm pore size tape",0.79 s
same,Time to 90% AUC,"[3]; Example 4B, particle size < 20µm, suspension in USP ethanol, two coats",0.85 s
same,Time to 90% AUC,"[3]; Example 4C, suspension in isopropanol, two coats",0.77 s
nonylphenol ethoxylate [NP-9],surface tension,[4]; 0.1 % v/v aqueous solution at 25°C,30 Dynes/cm
same,viscosity,[4]; at 25°C,243 cp
